Source: patent US9675697B2 (THE REGENTS OF THE UNIVERSITY OF MICHIGAN, priority 2013, dated 2017)

What was measured:
MOLM-13 = test: Cell growth inhibition, CellTiter-Glo, acute leukemia cell line; type: cell-based; settings: Homo sapiens, MOLM-13, 96 h, 4 days
Experimental: (§1) Cell growth inhibitory activity of representative BET bromodomain inhibitors was determined using CellTiter-Glo® Luminescent Cell Viability Assay. For leukemia cell lines MV-4-11 (ATCC, Manassas, Va.) and MOLM-13 (DSMZ, Germany), cells were seeded in 96-well white opaque cell culture plates at a density of 10,000 cells/well with serially diluted compounds and incubated at 37° C. in an atmosphere of 95% air and 5% CO2 for 4 days. Cell viability was determined using the CellTiter-Glo® Luminescent Cell Viability Assay Kit (Promega, Madison, Wis.) according to the manufacture's instruction. Briefly, a volume of CellTiter-Glo® Reagent equal to the volume of cell culture medium was added to each well, and then the plates were incubated at room temperature for 10-20 minutes. The luminescent signal was measured using a Tecan Infinite M1000 multimode microplate reader (Tecan, Morrisville, N.C.). The half maximal inhibitory concentration (IC50) was calculated using the GraphPad Prism 5 software (GraphPad Software, La Jolla, Calif.).

MV-4-11 = test: as above; type: cell-based; settings: Homo sapiens, MV4-11, 96 h, 4 days
Experimental: as §1

BT-474 = test: Cell growth inhibition, WST-8, breast cancer cell line; type: cell-based; settings: Homo sapiens, BT-474, 96 h, 4 days
Experimental: (§2) For breast cancer cell lines, cells were seeded in 96-well cell culture plates at a density of 5,000-10,000 cells/well with serially diluted compounds and incubated at 37° C. in an atmosphere of 95% air and 5% CO2 for 4 days. All the breast cancer cell lines were obtained from the ATCC. Cell viability was determined using the WST-8 (2-(2-methoxy-4-nitrophenyl)-3-(4-nitrophenyl)-5-(2,4-disulfophenyl)-2H-tetrazolium, monosodium salt) based Cell Counting-8 Kit (Dojindo Molecular Technologies, Inc., Rockville, Md.) according to the manufacture's instruction. Briefly, WST-8 was added to each well at a final concentration of 10% (v/v), and then the plates were incubated at 37° C. for 1-2 hours for color development. The absorbance was measured at 450 nm using a SPECTRAmax PLUS plate reader (Molecular Devices, Sunnyvale, Calif.). The IC50 was calculated using the GraphPad Prism 5 software.

MDA-MB-157 = test: as above; type: cell-based; settings: Homo sapiens, MDA-MB-157, 96 h, 4 days
Experimental: as §2

MDA-MB-231 = test: as above; type: cell-based; settings: Homo sapiens, MDA-MB-231, 96 h, 4 days
Experimental: as §2

MDA-MB-436 = test: as above; type: cell-based; settings: Homo sapiens, MDA-MB-436, 96 h, 4 days
Experimental: as §2

SK-BR-3 = test: as above; type: cell-based; settings: Homo sapiens, SK-BR-3, 96 h, 4 days
Experimental: as §2

prostate VCaP cell line = test: Cell growth inhibition, Cell TiterGLO, 4 days; type: cell-based; settings: Homo sapiens, VCaP, 96 h, treated 4 days, read-out: VCaP cells (IC50 (nM))
BRD2 BD1 = BRD2 BD1 (Homo sapiens (Human), UniProt P25440); test: FP competitive binding assay using Cpd. No. 350 as the probe; settings: read-out: BRD2 BD1 Ki; FP, Cpd. No. 350 probe […]
Experimental: (§3) Fluorescence Polarization (FP) competitive binding studies (see above) were carried out using the FAM labeled fluorescent probe Cpd. No. 350 to determine binding affinities of representative compounds to both BD1 and BD2 of BRD2, BRD3, and BRD4 proteins. Equilibrium dissociation constants (Id) values of Cpd. No. 350 to these six proteins were determined from protein saturation experiments by monitoring the total fluorescence polarization of mixtures composed with the fluorescent probe at a fixed concentration and proteins with increasing concentrations up to full saturation. Serial dilutions of testing protein were mixed with Cpd. No. 350 to a final volume of 200 μl in the assay buffer. […] Plates were incubated at room temperature for 30 minutes with gentle shaking to assure equilibrium. […] Kd values of Cpd.
(§4) The IC50 and Ki values of compounds were determined in a competitive binding experiment as described above. […] FP values were measured as described above. IC50 values were determined by nonlinear regression fitting of the competition curves.

BRD2 BD2 = BRD2 BD2 (Homo sapiens (Human), UniProt P25440); test: as above; settings: read-out: BRD2 BD2 Ki; FP, Cpd. No. 350 probe […]
Experimental: as §3, §4

BRD3 BD1 = BRD3 BD1 (Homo sapiens (Human), UniProt Q15059); test: as above; settings: read-out: BRD3 BD1 Ki; FP, Cpd. No. 350 probe […]
Experimental: as §3, §4

BRD3 BD2 = BRD3 BD2 (Homo sapiens (Human), UniProt Q15059); test: as above; settings: read-out: BRD3 BD2 Ki; FP, Cpd. No. 350 probe […]
Experimental: as §3, §4

BRD4 BD1 = BRD4 BD1 (Homo sapiens (Human), UniProt O60885); test: as above; settings: read-out: BRD4 BD1 Ki; FP, Cpd. No. 350 probe […]
Experimental: as §3, §4

BRD4 BD2 = BRD4 BD2 (Homo sapiens (Human), UniProt O60885); test: as above; settings: read-out: BRD4 BD2 Ki; FP, Cpd. No. 350 probe […]
Experimental: as §3, §4

Chain of BRD2 BD1 (P25440 74-180): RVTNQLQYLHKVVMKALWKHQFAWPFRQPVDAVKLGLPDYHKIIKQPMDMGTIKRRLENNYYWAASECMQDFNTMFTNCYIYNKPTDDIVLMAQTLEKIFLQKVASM
Chain of BRD3 BD1 (Q15059 34-140): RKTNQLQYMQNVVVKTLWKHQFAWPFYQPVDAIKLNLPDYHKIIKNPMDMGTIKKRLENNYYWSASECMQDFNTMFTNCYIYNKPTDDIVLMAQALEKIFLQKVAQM
Chain of BRD3 BD2 (Q15059 306-415): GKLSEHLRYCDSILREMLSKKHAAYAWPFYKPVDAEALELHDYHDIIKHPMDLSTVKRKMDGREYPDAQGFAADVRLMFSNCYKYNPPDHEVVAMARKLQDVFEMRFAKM
Chain of BRD2 BD2 (P25440 344-453): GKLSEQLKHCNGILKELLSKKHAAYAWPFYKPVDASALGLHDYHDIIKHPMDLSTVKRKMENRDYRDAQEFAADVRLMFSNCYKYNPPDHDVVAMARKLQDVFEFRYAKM

COc1cc2c(cc1-c1c(C)noc1C)[nH]c1nc(C)nc(-c3c(C)[nH]c4ccccc34)c12 [Cpd. No. 68]
IC50 (MOLM-13): < 100 nM
IC50 (MV-4-11): < 100 nM
IC50 (BT-474): < 300 nM
IC50 (MDA-MB-157): < 300 nM
IC50 (MDA-MB-231): < 300 nM
IC50 (MDA-MB-436): < 300 nM
IC50 (SK-BR-3): < 300 nM
IC50 (prostate VCaP cell line): 148 nM
Ki (BRD2 BD1): 3.2 nM
Ki (BRD2 BD2): 2.7 nM
Ki (BRD3 BD1): 5.1 nM
Ki (BRD3 BD2): 0.65 nM
Ki (BRD4 BD1): 7.3 nM
Ki (BRD4 BD2): 1.7 nM
